Data: patent US20170029388A1, “Treatment of Neurodegenerative Diseases with Asparagine Endopeptidase (AEP) Inhibitors and Compositions Related Thereto” (INTERCONTINENTAL GREAT BRANDS LLC, priority 2014, published 2017)

How the values were obtained:
[1] = Liver microsomal stability, human; conditions: human liver microsomes
CYP2D6 = CYP2D6 (Homo sapiens, UniProt P10635); test: CYP inhibition screening, CYP2D6; format: in vitro ADME
CYP3A4 = CYP3A4 (Homo sapiens, UniProt P08684); test: CYP inhibition screening, CYP3A4-Midazolam; format: in vitro ADME
Chain of CYP3A4 (P08684 whole entry): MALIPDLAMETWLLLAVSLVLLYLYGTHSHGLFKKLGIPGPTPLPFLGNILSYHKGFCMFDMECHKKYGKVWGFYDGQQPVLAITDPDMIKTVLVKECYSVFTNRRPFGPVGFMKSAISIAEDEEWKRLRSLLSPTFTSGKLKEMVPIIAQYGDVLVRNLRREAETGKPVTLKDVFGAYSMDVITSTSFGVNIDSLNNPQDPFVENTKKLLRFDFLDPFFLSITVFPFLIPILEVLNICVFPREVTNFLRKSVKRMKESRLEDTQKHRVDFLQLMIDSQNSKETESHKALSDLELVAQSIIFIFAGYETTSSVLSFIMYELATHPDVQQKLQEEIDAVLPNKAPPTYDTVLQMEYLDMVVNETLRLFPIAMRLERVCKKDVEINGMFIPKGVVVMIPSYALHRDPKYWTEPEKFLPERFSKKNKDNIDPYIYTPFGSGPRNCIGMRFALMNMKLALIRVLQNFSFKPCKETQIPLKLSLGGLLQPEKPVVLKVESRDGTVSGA

CYP1A2 = molecular target: T1, CYP1A2 (Homo sapiens, UniProt P05177); test: CYP inhibition screening, CYP1A2; format: in vitro ADME
T1 sequence (P05177 1-516): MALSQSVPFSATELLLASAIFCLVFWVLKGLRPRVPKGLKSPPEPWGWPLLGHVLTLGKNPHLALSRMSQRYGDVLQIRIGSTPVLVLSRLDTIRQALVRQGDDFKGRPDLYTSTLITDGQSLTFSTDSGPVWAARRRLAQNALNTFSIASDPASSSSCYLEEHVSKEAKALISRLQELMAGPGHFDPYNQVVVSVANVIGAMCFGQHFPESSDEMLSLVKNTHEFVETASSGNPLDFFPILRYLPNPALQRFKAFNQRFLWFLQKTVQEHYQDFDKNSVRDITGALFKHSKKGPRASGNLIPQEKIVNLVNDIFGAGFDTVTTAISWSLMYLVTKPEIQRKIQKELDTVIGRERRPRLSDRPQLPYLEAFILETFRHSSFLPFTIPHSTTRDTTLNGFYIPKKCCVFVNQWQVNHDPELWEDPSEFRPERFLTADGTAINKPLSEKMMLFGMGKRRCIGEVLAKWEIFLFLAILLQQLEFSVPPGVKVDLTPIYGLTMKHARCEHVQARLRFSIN

[2] = Liver microsomal stability, mouse; conditions: mouse liver microsomes
CYP3A = test: CYP inhibition screening, CYP3A-Testosterone; format: in vitro ADME
[3] = PAMPA
CYP2C9 = CYP2C9 (Homo sapiens, UniProt P11712); test: CYP inhibition screening, CYP2C9; format: in vitro ADME
Chain of CYP2C9 (P11712 whole entry): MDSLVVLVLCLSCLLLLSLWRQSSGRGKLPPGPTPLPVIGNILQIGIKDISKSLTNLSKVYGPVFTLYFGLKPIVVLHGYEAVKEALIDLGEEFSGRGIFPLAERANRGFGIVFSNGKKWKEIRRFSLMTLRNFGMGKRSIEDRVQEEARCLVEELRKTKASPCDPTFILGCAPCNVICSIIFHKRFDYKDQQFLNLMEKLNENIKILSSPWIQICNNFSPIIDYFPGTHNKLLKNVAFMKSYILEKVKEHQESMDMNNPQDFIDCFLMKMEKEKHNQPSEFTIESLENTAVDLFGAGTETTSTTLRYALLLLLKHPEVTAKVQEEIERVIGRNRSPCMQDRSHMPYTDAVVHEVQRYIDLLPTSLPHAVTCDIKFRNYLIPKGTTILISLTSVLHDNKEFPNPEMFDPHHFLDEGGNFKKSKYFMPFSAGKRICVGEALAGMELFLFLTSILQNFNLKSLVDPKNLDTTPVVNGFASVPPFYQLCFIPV

Caco-2 monolayer = Caco-2 monolayer permeability screen; format: in vitro ADME
Method: To explore the in vitro ADME profiles of the compounds, additional tests were conducted.

[4] = system: cleavage of the amyloid precursor protein (APP); test: OGD in primary cortical neurons, APP cleavage (immunoblot); format: cell-based
Method: A. AEP activity, measured in primary neuronal cultures with 5 μM Cbz-Ala-Ala-Asn-AMC (x-axis denotes neurons were treated with 0.1 μM or 1.0 μM specified compound). B. Caspase activity, measured in primary neuronal cultures with 5 μM Ac-Asp-Glu-Val-Asp-AMC. C. Cathepsin activity, measured in primary neuronal cultures with 5 μM D-Val-Leu-Lys-AMC. D. Inhibition of APP cleavage. Lysates of primary cortical neurons pre-incubated with compounds for 30 min, underwent OGD for 4 hrs, were reperfused for 18 hrs (normoxia neurons remained at normoxic conditions). E. APP can be cleaved in a dose-dependent manner. Lysates of primary cortical neurons pre-incubated with compounds for 30 min, underwent OGD for 4 hrs, were reperfused for 18 hrs (normoxia neurons remained at normoxic conditions).
Depriving cells of oxygen and glucose is a cellular model that is employed to trigger acidosis in cultured cells. The efficacy of the compounds in a cellular model of oxygen-glucose deprivation (OGD) was determined in an effort to mimic the effects of stroke in primary cultured neurons. As a result of depriving neurons of oxygen and glucose-containing medium, AEP activity was doubled (FIG. 7A, ‘DMSO-Norm’ compared to ‘DMSO-OGD’), while Caspase-3 and Cathepsin activities remained relatively unchanged. […] Cleavage of APP is observed in response to only DMSO treatment (FIG. 7D, lane 2), and it appears that upon the treatment of 1 μM of compounds 10, 11, and 12, and just 0.1 μM of compounds 31, 38 and 64, the cleavage was blocked, presumably due to AEP inhibition.
Compounds were pre-incubated with primary culture neurons, DIV13, for 30 min. The medium was exchanged for glucose-free DMEM and neurons were de-gased and incubated at 37° C., 95% N2/5% CO2 for 4 hrs with compounds. The medium was exchanged for DMEM and supplemented with compounds, then neurons were reperfused for 18 hrs under normoxic conditions. The neuronal lysates were prepared for AEP, Caspase-3 and Cathepsin assays. Moreover, immunoblotting analysis was conducted with the neuronal lysates using anti-APP, anti-AEP antibodies.

CYP2C19 = CYP2C19 (Homo sapiens, UniProt P33261); test: CYP inhibition screening, CYP2C19; format: in vitro ADME
Chain of CYP2C19 (P33261 whole entry): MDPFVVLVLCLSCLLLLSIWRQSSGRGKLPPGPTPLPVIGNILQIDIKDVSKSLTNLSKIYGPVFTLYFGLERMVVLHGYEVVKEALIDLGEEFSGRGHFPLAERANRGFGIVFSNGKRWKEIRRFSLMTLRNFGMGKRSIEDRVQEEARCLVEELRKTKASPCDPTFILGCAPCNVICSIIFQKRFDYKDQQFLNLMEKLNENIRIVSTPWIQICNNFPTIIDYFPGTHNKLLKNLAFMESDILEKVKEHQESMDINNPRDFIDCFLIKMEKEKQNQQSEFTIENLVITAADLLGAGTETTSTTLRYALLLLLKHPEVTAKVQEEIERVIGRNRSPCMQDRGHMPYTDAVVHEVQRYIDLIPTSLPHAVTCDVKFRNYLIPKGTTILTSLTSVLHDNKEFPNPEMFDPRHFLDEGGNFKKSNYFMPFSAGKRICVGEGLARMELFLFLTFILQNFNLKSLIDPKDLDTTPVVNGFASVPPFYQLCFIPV

Caspase-8 = molecular target: T2, Caspase-8 (Homo sapiens, UniProt Q14790); test: Caspase-8 enzymatic assay (specificity); format: biochemical
T2 construct: purchased Millipore
T2 sequence (Q14790 217-374 limits assumed, species assumed): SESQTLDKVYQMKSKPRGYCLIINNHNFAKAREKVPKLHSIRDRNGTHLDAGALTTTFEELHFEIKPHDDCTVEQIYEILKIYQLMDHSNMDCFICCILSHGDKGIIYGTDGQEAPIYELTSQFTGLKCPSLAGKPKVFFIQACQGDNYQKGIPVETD
T2 sequence (Q14790 385-479 limits assumed, species assumed): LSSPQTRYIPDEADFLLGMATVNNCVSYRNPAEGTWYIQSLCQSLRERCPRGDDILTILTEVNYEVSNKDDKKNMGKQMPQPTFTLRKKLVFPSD
Method: (§1) Purified recombinant enzyme was incubated with various concentrations of inhibitor in appropriate assay buffers in the presence of increasing concentrations of inhibitor. The formation of fluorescent product was monitored in duplicate reactions and the data was fit to appropriate equations to calculate the IC50 values.
(§2) To identify small-molecule inhibitors of AEP, a high-throughput screen was designed in conjunction with the Emory Chemical Biology Discovery Center. The screen incorporated mouse kidney lysates to assay a 54,384 compound library. […] Additional structural analysis and grouping allowed the compounds to be sorted into 8 distinct backbone families. […] The specificity of the compounds was also determined using four major cysteine proteases (FIG. 2).
(§3) Caspase-3 and 8 —The enzyme was pre-incubated with inhibitor in assay buffer (100 mM HEPES pH 7.4, 0.1% CHAPS, 10% Sucrose) for 10 min at 37° C. The reaction was initiated upon addition of 25 μM substrate (Ac-Asp-Glu-Val-Asp-AMC (Bachem)).

purified human AEP = molecular target: T3, purified human AEP (Homo sapiens, UniProt Q99538); test: AEP enzymatic assay with purified active enzyme (IC50); format: biochemical; conditions: purified recombinant enzyme; read-out: IC50 toward AEP
T3 construct: tested with purified active AEP, IC50 values for the top 8 candidates were found; purchased Sino Biological
T3 sequence (Q99538 18-323 limits assumed): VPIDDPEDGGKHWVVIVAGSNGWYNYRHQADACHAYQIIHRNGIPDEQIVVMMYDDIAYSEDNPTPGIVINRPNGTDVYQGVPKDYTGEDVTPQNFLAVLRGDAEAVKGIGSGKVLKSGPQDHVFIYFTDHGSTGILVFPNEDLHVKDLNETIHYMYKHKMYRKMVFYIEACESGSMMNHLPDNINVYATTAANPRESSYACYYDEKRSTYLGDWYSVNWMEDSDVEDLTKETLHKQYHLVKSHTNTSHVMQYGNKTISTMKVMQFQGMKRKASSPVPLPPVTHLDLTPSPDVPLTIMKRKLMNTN
Method: FIG. 1 illustrates a high-throughput screening scheme. […] The hits were validated further with purified human AEP, and promising compounds were categorized into 8 groups. Compounds from each group were tested and the cytotoxicity and specificity were determined.
as §1, §2
AEP—50 nM enzyme was pre-incubated with inhibitor in assay buffer (50 mM Sodium Citrate pH 5.5, 0.1% CHAPS, 60 mM Na2HPO4, 1 mM EDTA) for 10 min at 37° C. The reaction was initiated upon addition of 10 μM Cbz-Ala-Ala-Asn-AMC (Bachem)).

Cathepsin-S = molecular target: T4, Cathepsin-S (Homo sapiens, UniProt P25774); test: Cathepsin-S enzymatic assay (specificity); format: biochemical
T4 construct: purchased Athens Research and Technology
T4 sequence (P25774 115-331): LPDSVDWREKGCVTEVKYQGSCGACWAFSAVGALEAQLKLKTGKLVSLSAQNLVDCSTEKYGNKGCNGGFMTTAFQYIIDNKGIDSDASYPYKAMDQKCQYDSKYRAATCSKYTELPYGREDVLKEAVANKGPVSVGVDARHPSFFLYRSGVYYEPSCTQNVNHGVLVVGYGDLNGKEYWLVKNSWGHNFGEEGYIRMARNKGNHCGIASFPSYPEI
Method: as §1, §2
Cathepsin-S—100 nM enzyme was pre-incubated with inhibitor in assay buffer (100 mM NaH2PO4 pH 6.5, 100 mM NaCl) for 10 min at 37° C. The reaction was initiated upon addition of 25 μM substrate (Boc-Val-Leu-Lys-AMC (Bachem)).

Caspase-3 = molecular target: T5, Caspase-3 (Homo sapiens, UniProt P42574); test: Caspase-3 enzymatic assay (specificity); format: biochemical
T5 construct: purchased Millipore
T5 sequence (P42574 29-175 limits assumed, species assumed): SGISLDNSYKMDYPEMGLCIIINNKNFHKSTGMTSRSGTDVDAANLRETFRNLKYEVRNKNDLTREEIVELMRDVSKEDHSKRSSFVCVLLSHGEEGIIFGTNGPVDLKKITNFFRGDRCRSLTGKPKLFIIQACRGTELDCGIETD
T5 sequence (P42574 176-277 limits assumed, species assumed): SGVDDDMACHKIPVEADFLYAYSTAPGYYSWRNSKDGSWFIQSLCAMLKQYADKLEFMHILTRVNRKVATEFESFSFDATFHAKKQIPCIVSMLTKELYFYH
Method: as §1, §2, §3

Cathepsin-L = Cathepsin-L (Homo sapiens, UniProt P07711); test: Cathepsin-L enzymatic assay (specificity); format: biochemical
Chain of Cathepsin-L (P07711 114-333, species assumed): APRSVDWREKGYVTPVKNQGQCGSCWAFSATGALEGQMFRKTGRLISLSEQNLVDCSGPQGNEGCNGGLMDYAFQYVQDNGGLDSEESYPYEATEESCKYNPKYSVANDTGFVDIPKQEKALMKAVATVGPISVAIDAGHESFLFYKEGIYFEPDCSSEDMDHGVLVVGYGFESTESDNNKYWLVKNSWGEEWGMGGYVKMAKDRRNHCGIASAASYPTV
Method: as §1, §2
Cathepsin-L—100 nM enzyme was pre-incubated with inhibitor in assay buffer (100 mM Sodium Acetate pH 5.5, 1 mM EDTA) for 10 min at 37° C. The reaction was initiated upon addition of 25 μM substrate (D-Val-Leu-Lys-AMC (Bachem)).

AEP = molecular target: T6, AEP (Homo sapiens, UniProt Q99538); test: DTT reversibility assay; format: biochemical; conditions: 5x IC50 of compound, 10 mM DTT or L-cysteine
T6 construct: tested with purified active AEP, IC50 values for the top 8 candidates were found; purchased Sino Biological
T6 sequence (Q99538 18-323 limits assumed): T3 sequence (Q99538 18-323 limits assumed)
Method: AEP was reacted with specified inhibitor, after 15 min 10 mM DTT or L-cysteine was added to the reaction and the fluorescent signal was read for an additional 15 min. At the end of the second 15 min incubation, the percentage of product formed in the presence of each compound was determined in comparison to the DMSO control reaction.
Although it is not intended that embodiments of this disclosure be limited by any particular mechanism, to gain additional insight into the mechanism utilized by the inhibitors for abrogation of AEP activity, their reversibility in the presence of free thiols was determined. The addition of a strong reducing agent, such as DTT, or a weaker reducing agent, L-cysteine, to an inhibited reaction can be used to out-compete the inhibitory agent and restore catalytic activity to an enzyme with an active-site thiol residue. Here, a similar approach was used by adding a reducing agent, either DTT or L-cysteine, to a reaction, in which AEP had been incubated with a specified inhibitor, in an attempt to reverse the effects of the inhibitor. […] For compounds BB1 and 38, this increase in enzymatic activity may be due to the reduction of a disulfide linkage between the inhibitor and the enzyme, since these compounds contain thiols. Compound 10 contains a thiocyanate and may undergo nucleophilic attack by the enzyme's active-site thiolate to form a thioimidate enzyme-inhibitor complex. Under acidic conditions, this complex is reducible by either a strong reducing agent, such as DTT, or the weaker L-cysteine.
Simultaneously, 10 mM (final concentration) dithiothreitol (DTT) or L-cysteine was added to each reaction and incubated for an additional 15 min. At the end of the second 15 min incubation time, the fluorescence was measured for each sample. The amount of product formed in the presence of DMSO was used to determine the percentage of AEP activity in the presence of each drug.

[5] = molecular target: T7, AEP in human B lymphoblastoid Pala cells (Homo sapiens, UniProt Q99538); test: IC50 assays in intact Pala cells; format: cell-based; conditions: 2 hr incubation, residual AEP activity in lysate
T7 construct: human B lymphoblastoid pala cells, which are rich in endogenous AEP; endogenous in cells; host or cells: Pala cells (human B lymphoblastoid)
Method: The cells were incubated with inhibitors for 2 hrs then cells washed, harvested and lysed and the residual enzymatic activity was determined. Lysate was normalized by Bradford assay and the experiment was performed in triplicate and the mean results and SEM were plotted.
In an attempt to assess the activity of the compounds in intact cells, the compounds were incubated with human B lymphoblastoid pala cells, which are rich in endogenous AEP and have been used for inhibiting AEP in cellular assay.
Human B Lymphoblastoid Pala cells, which express high concentrations of AEP, were cultured in RPMI-1640, supplemented with 10% FBS, 2 mM L-Glutamine, 100 units/mL Penicillin, 100 μg/mL Streptomycin. Various concentrations of each compound were incubated with the Pala cells for 2 hr at 37° C. Cells were collected, washed twice with PBS and lysed in Lysis Buffer (20 mM Citric Acid, 60 mM Disodium Hydrogen Orthophosphate, 1 mM EDTA, 0.1% CHAPS, pH 5.8). The protein concentrations were normalized by Bradford assay and lysates were assayed with 5 μ,M Cbz-Ala-Ala-Asn-AMC. […] Data were analyzed with GraFit version 5.0.11 software package.

Chain of CYP2D6 (P10635 whole entry): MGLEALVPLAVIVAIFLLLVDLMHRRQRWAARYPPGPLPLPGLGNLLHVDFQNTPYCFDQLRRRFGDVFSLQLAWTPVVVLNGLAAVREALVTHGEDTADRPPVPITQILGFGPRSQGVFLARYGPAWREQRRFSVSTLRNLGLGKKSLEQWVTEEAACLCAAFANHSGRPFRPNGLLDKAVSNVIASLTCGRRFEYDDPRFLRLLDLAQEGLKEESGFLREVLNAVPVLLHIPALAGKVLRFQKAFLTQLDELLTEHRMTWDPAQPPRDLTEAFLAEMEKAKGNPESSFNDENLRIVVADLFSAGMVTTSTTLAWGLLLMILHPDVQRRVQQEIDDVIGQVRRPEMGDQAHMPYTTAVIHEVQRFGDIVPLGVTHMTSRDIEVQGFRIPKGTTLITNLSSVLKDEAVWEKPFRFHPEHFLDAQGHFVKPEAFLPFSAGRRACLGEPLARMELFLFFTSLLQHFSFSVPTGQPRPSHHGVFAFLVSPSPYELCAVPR

SMILES	CYP inhibition, CYP2D6 (CYP2D6; test concentration 3 μM)	CYP inhibition, CYP2D6 (CYP2D6; test concentration 10 μM)	CYP inhibition, CYP3A4-Midazolam (CYP3A4; test concentration 3 μM)	CYP inhibition, CYP3A4-Midazolam (CYP3A4; test concentration 10 μM)	CYP inhibition, CYP1A2 (CYP1A2; test concentration 3 μM)	CYP inhibition, CYP1A2 (CYP1A2; test concentration 10 μM)	CYP inhibition, CYP3A-Testosterone (CYP3A; test concentration 3 μM)	CYP inhibition, CYP3A-Testosterone (CYP3A; test concentration 10 μM)	CYP inhibition, CYP2C9 (CYP2C9; test concentration 3 μM)	CYP inhibition, CYP2C9 (CYP2C9; test concentration 10 μM)	A -> B Papp (Caco-2 monolayer; Caco-2)	B -> A Papp (Caco-2 monolayer; Caco-2)	cleavage of APP after OGD ([4]; 0.1 μM compound)	CYP inhibition, CYP2C19 (CYP2C19; test concentration 3 μM)	CYP inhibition, CYP2C19 (CYP2C19; test concentration 10 μM)	further results
COc1ccc(N2CCN(C(c3ccc(N(C)C)cc3)c3nnnn3C(C)(C)C)CC2)cc1 (stereo not shown) [Compound 31]	9.9%	1.4%	−0.9%	18.1%	13.5%	10.3%	2.5%	0.7%	47.8%	69.2%	19.3 10^−6 cm · s^−1	17.4 10^−6 cm · s^−1	blocked	37.7%	55.7%	Mean Remaining Parent (NADPH-free) [1]: 75%; Mean Remaining Parent (with NADPH) ([1]; 30 min of incubation): 12%; Mean Remaining Parent (NADPH-free) [2]: 86%; Mean Remaining Parent (with NADPH) [2]: 16%; Pe [3]: <LLOQ; Caco-2 permeability (in words) (Caco-2 monolayer): highly permeable; RE (Caco-2 monolayer; Caco-2): 0.9
CCN(CC)c1ccc(CN2CCc3nc(C)[nH]c(=O)c3C2)c(OC)c1 [Compound 64]	34.6%	58.3%	0.6%	10.1%	23.7%	22.2%	1.5%	−0.1%	4.6%	7.9%	<LLOQ	<LLOQ	blocked	31.6%	20.4%	selectivity for AEP over Caspase-8 (Caspase-8): over 40 fold; IC50 (purified human AEP): 2370 nM; selectivity for AEP over Cathepsin-S (Cathepsin-S): over 40 fold; selectivity for AEP over Caspase-3 (Caspase-3): about 6 fold; selectivity for AEP over Cathepsin-L (Cathepsin-L): over 40 fold
N#CSc1cnc(N)s1 [Compound 10]	–	–	–	–	–	–	–	–	–	–	–	–	–	–	–	AEP activity after addition of reducing agent (reversibility) (AEP): regained a substantial amount of activity; IC50 in intact Pala cells [5]: slightly larger IC50 values; dose dependence of APP cleavage after OGD [4]: dose-dependent decrease; cleavage of APP after OGD ([4]; 1 μM compound): blocked
